The results in this text go back to ChEMBL document CHEMBL1126241, “Synthesis, characterization, and Ca2+ antagonistic activity of diltiazem metabolites” (J Med Chem, 1992).

The test system of this test is Cricetinae gen. sp. As to the kind of experiment: Concentration (10 e-6 M) required to block [Ca2+]-induced contraction of K+-depolarized hamster aorta. It is filed as functional.
One may read the IC50 as the concentration that gives 50% inhibition. Read a low IC50 as greater potency. `CC(=O)OC1C(=O)N(CCN(C)C)c2ccccc2SC1c1ccc(O)cc1` (configuration not stated) returned an IC50 of 40.4 µM.

On to `CN(C)CCN1C(=O)C(O)C(c2ccc(O)cc2)Sc2ccccc21` (configuration not stated), for which half-maximal inhibition (IC50) required 45.5 µM. In the case of `CNCCN1C(=O)C(OC(C)=O)C(c2ccc(OC)cc2)Sc2ccccc21` (configuration not stated), the IC50 came to 3.27 µM.

`CNCCN1C(=O)C(O)C(c2ccc(O)cc2)Sc2ccccc21` (configuration not stated) gave an IC50 of 127 µM. `CNCCN1C(=O)C(O)C(c2ccc(OC)cc2)Sc2ccccc21` (configuration not stated) registered a concentration for half-maximal inhibition (IC50) of 20.2 µM. Then `CNCCN1C(=O)C(OC(C)=O)C(c2ccc(O)cc2)Sc2ccccc21` (configuration not stated), with 112 µM; and `COc1ccc([C@@H]2Sc3ccccc3N(CCN(C)C)C(=O)[C@@H]2OC(C)=O)cc1` [DILTIAZEM], with 0.98 µM.
